Data from patent publication US20090055945A1, “Method for Producing Nuclear-Transplanted Egg” (priority 2005, published 2009).

System: nuclear transfer embryos
Assay: Birth rate of cloned mice after implantation of treated nuclear transfer embryos
Assay type: in vivo, mouse
Method: Based on the results of Example 3, the effect of the TSA treatment on the fetus birth rate was examined. […] after the initiation of activation and transferred to KSOM medium without TSA, and the nuclear transfer embryos transferred to KSOM medium without TSA were cultured in this medium until implantation. For producing cloned mice, embryos at the 2-cell stage were implanted into oviducts of pseudopregnant mice (surrogate mothers, day 0.5) on the day after the nuclear transfer. The pseudopregnancy treatment was carried out by mating a ICR female mouse (in estrus) with an ICR vasectomized male mouse on a one-to-one basis. The successful mating was confirmed based on the presence of plug formation. Cloned mice were delivered by cesarean section 19 days after the embryo transfer into oviduct. The ratio of the number of born cloned mouse fetuses to the number of implanted embryos (birth rate) was determined. Cloned mouse fetuses and placentas immediately after birth (left), and cloned mice (black) and a surrogate mother (white) after three weeks (right) are shown in FIG. 6.

**Q.** What does the source list for `CC(/C=C/C(=O)NO)=C\[C@@H](C)C(=O)c1ccc(N(C)C)cc1` [TSA, trichostatin A]?
**A.** Birth rate (%) (TSA 5 nM, treatment time 10 h): 6.2%; Number of born fetuses (TSA 5 nM, treatment time 10 h, 289 implanted embryos): 18; Birth rate (%) (TSA 5 nM, treatment time 20 h): 3.2%; Number of born fetuses (TSA 5 nM, treatment time 20 h, 274 implanted embryos): 9; Birth rate (%) (TSA 50 nM, treatment time 10 h): 7.7%; Number of born fetuses (TSA 50 nM, treatment time 10 h, 91 implanted embryos): 7; Birth rate (%) (TSA 50 nM, treatment time 20 h): 2.5%; Number of born fetuses (TSA 50 nM, treatment time 20 h, 81 implanted embryos): 2; birth rate vs control (TSA treatment for 10 hours or 20 hours): increased
